Patent US7005443B1, “5-Hydroxy indazole derivatives for treating glaucoma” (priority 2000, dated 2006)
Read-outs that look alike come from different tables or passages of the source.

Tests used:
5HT2 receptor = target: T1, 5HT2 receptor (Rattus norvegicus, UniProt P14842); test: 5HT2 Functional Assay: Phosphoinositide (PI) turnover assay; assay type: cell-based; conditions: for Emax: A7R5, read-out: Efficacy (Emax, %)
T1 construct: A7r5 rat vascular smooth muscle cells; endogenous in cells; host or cells: A7r5 rat vascular smooth muscle cells
T1 sequence (P14842 whole entry): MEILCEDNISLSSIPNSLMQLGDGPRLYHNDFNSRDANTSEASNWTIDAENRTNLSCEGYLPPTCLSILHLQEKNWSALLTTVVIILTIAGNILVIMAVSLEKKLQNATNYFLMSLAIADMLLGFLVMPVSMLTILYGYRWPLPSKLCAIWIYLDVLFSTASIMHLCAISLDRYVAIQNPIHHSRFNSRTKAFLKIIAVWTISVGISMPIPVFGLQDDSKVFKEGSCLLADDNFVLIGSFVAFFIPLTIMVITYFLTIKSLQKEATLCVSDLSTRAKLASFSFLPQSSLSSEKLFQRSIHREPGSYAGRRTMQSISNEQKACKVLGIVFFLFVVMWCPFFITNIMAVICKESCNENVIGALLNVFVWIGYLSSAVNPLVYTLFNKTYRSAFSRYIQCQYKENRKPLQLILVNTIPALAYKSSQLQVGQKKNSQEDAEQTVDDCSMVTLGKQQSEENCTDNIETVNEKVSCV
Protocol: 5HT2 Functional Assay: Phosphoinositide (PI) turnover assay
The relative agonist activity of serotonergic compounds at the 5HT2 receptor can be determined in vitro using the ability of the compounds to stimulate the production of [^3H]inositol phosphates in [^3H]myo-inositol-labeled A7r5 rat vascular smooth muscle cells by their ability to activate the enzyme phospholipase C. These cells are grown in culture plates, maintained in a humidified atmosphere of 5% CO2 and 95% air and fed semi-weekly with Dulbecco's modified Eagle medium (DMEM) containing 4.5 g/l glucose and supplemented with 2 mM glutamine, 10 μg/ml gentamicin, and 10% fetal bovine serum. For the purpose of conducting the phosphoinositide (PI) turnover experiments, the A7r5 cells are cultured in 24-well plates as previously [J. Pharmacol. Expt. Ther., 286, 411 (1998)]. Confluent cells are exposed for 24–30 hrs to 1.5 μCi [^3H]-myo-inositol (18.3 Ci/mmol) in 0.5 ml of serum-free medium. Cells are then rinsed once with DMEM/F-12 containing 10 mM LiCl prior to incubation with the test agent (or solvent as the control) in 1.0 ml of the same medium for 1 hr at 37° C., after which the medium is aspirated and 1 ml of cold 0.1 M formic acid added to stop the reaction. The chromatographic separation of [^3H]-inositol phosphates ([^3H]-IPs) on an AG- 1-X8 column is performed as previously described [J. Pharmacol. Expt. Ther. 286, 411 (1998)] with sequential washes with H2O and 50 mM ammonium formate, followed by elution of the total [^3H]-IPs fraction with 1.2 M ammonium formate containing 0.1 M formic acid. The eluate (4 ml) is collected, mixed with 15 ml scintillation fluid, and the total [3H]-IPs determined by scintillation counting on a beta-counter. Concentration-response data are analyzed by the sigmoidal fit function of the Origin Scientific Graphics software (Microcal Software, Northampton, Mass.) to determine agonist potency (EC50 value) and efficacy (Emax). Serotonin (5HT) is used as a positive control (standard) agonist compound and the efficacy of test compounds is compared to that of 5HT (set at 100%). The concentration of the compound needed to stimulate the production of […] by 50% of the maximum response is termed the EC50 value.

SMILES	melting point	Emax (5HT2 receptor)	EC50 (5HT2 receptor; [3H]inositol phosphate production in A7r5 rat vascular smooth muscle cells, read-out: EC50)	EC50 (5HT2 receptor)
CC(N)Cc1n[nH]c2ccc(O)cc12.Cl (stereo not drawn) [3-(2-Aminopropyl)-1H-indazol-5-ol hydrochloride]	227 to 230 °C	97%	1210 nM	–
CC(N)Cc1nn(C)c2ccc(O)cc12.O=C(O)/C=C/C(=O)O (stereo not drawn) [3-(2-Aminopropyl)-1-methyl-1H-indazol-5-ol fumarate]	136 to 139 °C	98%	–	778 nM
